Data as given in PubChem BioAssay AID1195 (EPA DSSTox, 2008).

Test system: human maximum recommended daily dose, FDA database
Experiment: DSSTox (FDAMDD) FDA Maximum (Recommended) Daily Dose Database
Settings: hits give low values
Outline: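 MRDD values come from clinical trials with daily oral dosing, usually for 3–12 months, for the average adult, in mg/day converted to mg/kg-bw/day assuming 60 kg. Antineoplastic mg/m2 doses are divided by 37. Activity score maps log10(1/MRDD mmol) onto 1–100.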

[1] = TherapeuticCategory: sedative, hypnotic
[2] = TherapeuticCategory: antibacterial
[3] = TherapeuticCategory: analgesic, antipyretic, anti inflammatory
[4] = TherapeuticCategory: antiemetic
[5] = TherapeuticCategory: antihistaminic
[6] = TherapeuticCategory: antihypertensive
[7] = TherapeuticCategory: antihypertensive, antianginal, antiarrhythmic
[8] = TherapeuticCategory: antineoplastic
[9] = TherapeuticCategory: anticholinergic
[10] = TherapeuticCategory: antihyperlipoproteinemic
[11] = TherapeuticCategory: enzyme cofactor vitamin

## CC/C=C(\C)C1(CC)C(=O)NC(=O)NC1=O
[1]
  maximum recommended daily dose (mmol/kg-bw/day): 0.0148

## OCCN1CCN(CCCN2c3ccccc3Sc3ccc(C(F)(F)F)cc32)CC1
TherapeuticCategory: antispsychotic
  maximum recommended daily dose (mmol/kg-bw/day): 0.000761

## COc1ccc2c(c1OC)CN1CCc3cc4c(cc3C1C2)OCO4 (centres undefined)
TherapeuticCategory: Ca channel blocker
  maximum recommended daily dose (mmol/kg-bw/day): 0.0981

## O=C1NC(=O)C(c2ccccc2)(c2ccccc2)N1
TherapeuticCategory: anticonvulsant, antiepileptic
  maximum recommended daily dose (mmol/kg-bw/day): 0.0198

## COc1cccc(OC)c1C(=O)N[C@@H]1C(=O)N2[C@@H]1SC(C)(C)[C@@H]2C(=O)O
[2]
  maximum recommended daily dose (mmol/kg-bw/day): 0.526

## CN1CCCC(n2nc(Cc3ccc(Cl)cc3)c3ccccc3c2=O)CC1 (centres undefined)
TherapeuticCategory: antiallergic, antiasthmatic, antihistaminic
  maximum recommended daily dose (mmol/kg-bw/day): 0.000348

## Nc1ncnc2c1ncn2[C@@H]1O[C@H](CO)[C@@H](O)[C@H]1O
TherapeuticCategory: antiarrhythmic
  maximum recommended daily dose (mmol/kg-bw/day): 0.00748

## CCOC(=O)c1c(N)sc2c1CCN(Cc1ccccc1)C2
[3]
  maximum recommended daily dose (mmol/kg-bw/day): 0.0158

## NC(=O)CC[C@H](N)C(=O)O
TherapeuticCategory: none
  maximum recommended daily dose (mmol/kg-bw/day): 1.37

## CCN(CC)C(C)C(=O)c1ccccc1 (centres undefined)
TherapeuticCategory: anorexic
  maximum recommended daily dose (mmol/kg-bw/day): 0.00609

## C/C=C(/CC[C@@H](C)[C@H]1CC[C@H]2C3=CC[C@H]4[C@H](C)[C@@H](O)CC[C@]4(C)[C@H]3CC[C@]12C)C(C)C
TherapeuticCategory: anticholinesteremic
  maximum recommended daily dose (mmol/kg-bw/day): 0.234

## BrC(Br)Br
TherapeuticCategory: sedative, hypnotic, antitussive
  maximum recommended daily dose (mmol/kg-bw/day): 0.0989

## CC[C@H]1OC(=O)[C@H](C)[C@@H](O[C@H]2C[C@@](C)(OC)[C@@H](O)[C@H](C)O2)C(C)[C@@H](O[C@@H]2O[C@H](C)C[C@H](N(C)C)[C@H]2O)[C@](C)(OC)C[C@@H](C)C(=O)[C@H](C)[C@@H](O)[C@]1(C)O (some centres undefined)
[2]
  maximum recommended daily dose (mmol/kg-bw/day): 0.0111

## CN(C)[C@@H]1C(=O)C(C(N)=O)=C(O)[C@@]2(O)C(=O)C3=C(O)c4c(O)cccc4[C@@](C)(O)[C@H]3[C@H](O)[C@@H]12
[2]
  maximum recommended daily dose (mmol/kg-bw/day): 0.0671

## Cc1nccn1CC1CCc2c(c3ccccc3n2C)C1=O (centres undefined)
[4]
  maximum recommended daily dose (mmol/kg-bw/day): 0.00136

## N=C(N)c1ccc(/C=C/c2ccc(C(=N)N)cc2O)cc1
TherapeuticCategory: antiprotozoal
  maximum recommended daily dose (mmol/kg-bw/day): 0.0149

## O=C(O)COCCN1CCN(C(c2ccccc2)c2ccc(Cl)cc2)CC1 (centres undefined)
[5]
  maximum recommended daily dose (mmol/kg-bw/day): 0.0432

## CN1CCC(=C2c3ccccc3CC(=O)c3sccc32)CC1
TherapeuticCategory: antiasthmatic
  maximum recommended daily dose (mmol/kg-bw/day): 0.000108

## NC(N)=NCCN1CCCCCCC1
[6]
  maximum recommended daily dose (mmol/kg-bw/day): 0.0042

## Nc1[nH]c(=O)ncc1F
TherapeuticCategory: antifungal
  maximum recommended daily dose (mmol/kg-bw/day): 1.16

## Cc1cn([C@H]2C[C@H](O)[C@@H](CO)O2)c(=O)[nH]c1=O
TherapeuticCategory: none
  maximum recommended daily dose (mmol/kg-bw/day): 0.413

## CC(C)NCC(O)COc1cccc2ccccc12 (centres undefined)
[7]
  maximum recommended daily dose (mmol/kg-bw/day): 0.0413

## CNNCc1ccc(C(=O)NC(C)C)cc1
[8]
  maximum recommended daily dose (mmol/kg-bw/day): 0.0271

## CC(C)(C)NCC(O)COc1ccccc1C#N (centres undefined)
[7]
  maximum recommended daily dose (mmol/kg-bw/day): 0.00269

## Cc1cc(C(=O)NCCc2ccc(S(=O)(=O)NC(=O)NN3CCCCCC3)cc2)no1
TherapeuticCategory: antidiabetic
  maximum recommended daily dose (mmol/kg-bw/day): 0.000594

## C[N+]1(C)CCCC(OC(=O)C(O)(c2ccccc2)c2ccccc2)C1 (centres undefined)
[9]
  maximum recommended daily dose (mmol/kg-bw/day): 0.00792

## CCOC(=O)[C@H](CCc1ccccc1)N[C@@H](C)C(=O)N1Cc2cc(OC)c(OC)cc2C[C@H]1C(=O)O
TherapeuticCategory: antihypertensive, ACE inhibitor
  maximum recommended daily dose (mmol/kg-bw/day): 0.00167

## N[C@@H](CC(=O)O)C(=O)O
TherapeuticCategory: roborant
  maximum recommended daily dose (mmol/kg-bw/day): 0.751

## O=c1c(CO)c/c(=N/Nc2ccc(S(=O)(=O)O)c3ccccc23)c(=O)/c1=N/Nc1ccc(S(=O)(=O)O)c2ccccc12
TherapeuticCategory: food additive
  maximum recommended daily dose (mmol/kg-bw/day): 0.0023

## CCCC(C)C1(CC)C(=O)NC(=O)NC1=O (centres undefined)
[1]
  maximum recommended daily dose (mmol/kg-bw/day): 0.0147

## O=c1ccc2ccccc2o1
TherapeuticCategory: pharmaceutic aid
  maximum recommended daily dose (mmol/kg-bw/day): 0.0114

## NC(=O)[C@@H]1CCCN1C(=O)[C@H](Cc1cnc[nH]1)NC(=O)[C@@H]1CCC(=O)N1
TherapeuticCategory: prohormone
  maximum recommended daily dose (mmol/kg-bw/day): 2.3e-05

## CCN(CC)CCOC(=O)c1ccc(N)cc1Cl
TherapeuticCategory: local anesthetic
  maximum recommended daily dose (mmol/kg-bw/day): 0.0308

## COC(=O)C(c1ccccc1)C1CCCCN1 (centres undefined)
TherapeuticCategory: CNS stimulant
  maximum recommended daily dose (mmol/kg-bw/day): 0.00429

## COc1ccc(NS(=O)(=O)c2ccc(N)cc2)nn1
[2]
  maximum recommended daily dose (mmol/kg-bw/day): 0.0892

## OC(CCN1CCCC1)(c1ccccc1)C1CCCCC1 (centres undefined)
[9]
  maximum recommended daily dose (mmol/kg-bw/day): 0.00116

## CCOC(=O)C(C)(C)Oc1ccc(Cl)cc1
[10]
  maximum recommended daily dose (mmol/kg-bw/day): 0.137

## Cc1ncc(C[n+]2csc(CCO)c2C)c(N)n1
[11]
  maximum recommended daily dose (mmol/kg-bw/day): 0.00555

## NC[C@@H]1O[C@H](O[C@H]2[C@@H](O)[C@H](O[C@@H]3[C@@H](O)[C@H](N)C[C@H](N)[C@H]3O[C@H]3O[C@H](CO)[C@@H](O)C[C@H]3N)O[C@@H]2CO)[C@H](N)[C@@H](O)[C@@H]1O[C@H]1O[C@H](CO)[C@@H](O)[C@H](O)[C@@H]1O
[2]
  maximum recommended daily dose (mmol/kg-bw/day): 0.0219

## c1ccc(C2(N3CCCCC3)CCCCC2)cc1
TherapeuticCategory: analgesic, anesthetic
  maximum recommended daily dose (mmol/kg-bw/day): 0.000822

## CC(=O)OCC(CCn1cnc2cnc(N)nc21)COC(C)=O
TherapeuticCategory: antiviral
  maximum recommended daily dose (mmol/kg-bw/day): 0.0778

## O=C(O)c1cc(-c2ccc(F)cc2F)ccc1O
TherapeuticCategory: analgesic, anti inflammatory
  maximum recommended daily dose (mmol/kg-bw/day): 0.0999

## CCOC(=O)CCCCCCCCC(C)c1cccc(I)c1 (centres undefined)
TherapeuticCategory: diagnostic aid
  maximum recommended daily dose (mmol/kg-bw/day): 0.3

## COc1cc(NS(=O)(=O)c2ccc(N)cc2)nc(OC)n1
[2]
  maximum recommended daily dose (mmol/kg-bw/day): 0.107

## CCN(C)C(=O)Oc1cccc([C@H](C)N(C)C)c1
TherapeuticCategory: cholinesterase inhibitor
  maximum recommended daily dose (mmol/kg-bw/day): 0.000799

## C=CC1=C(C(=O)O)N2C(=O)[C@@H](NC(=O)/C(=N\OCC(=O)O)c3csc(N)n3)[C@H]2SC1
[2]
  maximum recommended daily dose (mmol/kg-bw/day): 0.0293

## O=P(O)(O)OCC(O)CO (centres undefined)
TherapeuticCategory: none
  maximum recommended daily dose (mmol/kg-bw/day): 0.388

## COCc1c(C(C)C)nc(C(C)C)c(/C=C/[C@@H](O)C[C@@H](O)CC(=O)O)c1-c1ccc(F)cc1
[10]
  maximum recommended daily dose (mmol/kg-bw/day): 1.09e-05

## CCN(CC)CCCC(C)Nc1c2ccc(Cl)cc2nc2ccc(OC)cc12 (centres undefined)
TherapeuticCategory: antithelmintic, antimalarial
  maximum recommended daily dose (mmol/kg-bw/day): 0.0125

## CO[C@H]1[C@@H](O)C[C@H](O[C@H]2[C@@H](O)C[C@H](O[C@H]3[C@@H](O)C[C@H](O[C@H]4CC[C@@]5(C)[C@H](CC[C@@H]6[C@@H]5C[C@@H](O)[C@]5(C)[C@@H](C7=CC(=O)OC7)CC[C@]65O)C4)O[C@@H]3C)O[C@@H]2C)O[C@@H]1C
TherapeuticCategory: cardiotonic
  maximum recommended daily dose (mmol/kg-bw/day): 8.39e-06

## CCN(CC)C(=O)N1CCN(C)CC1
TherapeuticCategory: anthelmintic
  maximum recommended daily dose (mmol/kg-bw/day): 0.0301

## NS(=O)(=O)c1cc2c(cc1Cl)NC(CC1CCCC1)NS2(=O)=O (centres undefined)
[6]
  maximum recommended daily dose (mmol/kg-bw/day): 6.58e-05

## CN(C)CC[C@@H](c1ccc(Br)cc1)c1ccccn1
[5]
  maximum recommended daily dose (mmol/kg-bw/day): 0.00251

## CCOC(=O)C1(c2ccccc2)CCN(CCC(C#N)(c2ccccc2)c2ccccc2)CC1
TherapeuticCategory: antiperistaltic, antidiarrheal
  maximum recommended daily dose (mmol/kg-bw/day): 0.000736

## COc1ncnc(NS(=O)(=O)c2ccc(N)cc2)c1OC
[2]
  maximum recommended daily dose (mmol/kg-bw/day): 0.0806

## NCCCCCC(=O)O
TherapeuticCategory: hemostatic
  maximum recommended daily dose (mmol/kg-bw/day): 1.52

## CC(=O)OCC(=O)[C@@]1(OC(=O)C(C)C)[C@@H](C)C[C@H]2[C@@H]3CCC4=CC(=O)C=C[C@]4(C)[C@@]3(F)[C@@H](O)C[C@@]21C
TherapeuticCategory: glucocorticoid
  maximum recommended daily dose (mmol/kg-bw/day): 0.000297

## CN(C)CCCN1c2ccccc2C(C)(C)c2ccccc21
TherapeuticCategory: antidepressant
  maximum recommended daily dose (mmol/kg-bw/day): 0.034

## Cc1cc2nc3c(=O)[nH]c(=O)nc-3n(C[C@H](O)[C@H](O)[C@H](O)COP(=O)(O)O)c2cc1C
[11]
  maximum recommended daily dose (mmol/kg-bw/day): 0.0011

## CCN(CC)CCNc1ccc(C)c2sc3ccccc3c(=O)c12
TherapeuticCategory: antihelmintic
  maximum recommended daily dose (mmol/kg-bw/day): 0.0978

## CN1C(=O)CC(C)(c2ccccc2)C1=O (centres undefined)
TherapeuticCategory: anticonvulsant
  maximum recommended daily dose (mmol/kg-bw/day): 0.0984

## CN=C1CN(O)C(c2ccccc2)=c2cc(Cl)ccc2=N1
TherapeuticCategory: anxiolytic
  maximum recommended daily dose (mmol/kg-bw/day): 0.00557

## COCCOC(=O)C1=C(C)NC(C)=C(C(=O)OC(C)C)C1c1cccc([N+](=O)[O-])c1 (centres undefined)
TherapeuticCategory: cerebral vasodilator
  maximum recommended daily dose (mmol/kg-bw/day): 0.0143

## Clc1ccc2nsnc2c1NC1=NCCN1
TherapeuticCategory: skeletal muscle relaxant
  maximum recommended daily dose (mmol/kg-bw/day): 0.00236

## CCC(=O)O[C@H]1CC[C@H]2[C@@H]3CC[C@H]4CC(=O)[C@H](C)C[C@]4(C)[C@H]3CC[C@]12C
[8]
  maximum recommended daily dose (mmol/kg-bw/day): 0.00463

## Oc1ccc2c(c1)[C@@]13CCCC[C@@]1(O)[C@@H](C2)N(CC1CCC1)CC3
TherapeuticCategory: narcotic analgesic
  maximum recommended daily dose (mmol/kg-bw/day): 0.000815

## COc1cc(C(=O)NCc2ccc(OCCN(C)C)cc2)cc(OC)c1OC
[4]
  maximum recommended daily dose (mmol/kg-bw/day): 0.043

## O=C(N[C@H](CO)[C@H](O)c1ccc([N+](=O)[O-])cc1)C(Cl)Cl
TherapeuticCategory: antibacterial, antirickettsial
  maximum recommended daily dose (mmol/kg-bw/day): 0.309

## C#C[C@]1(O)CC[C@H]2[C@@H]3CCC4=CCCC[C@@H]4[C@H]3C(=C)C[C@@]21CC
TherapeuticCategory: progestogen
  maximum recommended daily dose (mmol/kg-bw/day): 8.05e-06

## CCCCC(C(=O)O)C(=O)N(Nc1ccccc1)c1ccccc1 (centres undefined)
[3]
  maximum recommended daily dose (mmol/kg-bw/day): 0.0337

## S=P(N1CC1)(N1CC1)N1CC1
[8]
  maximum recommended daily dose (mmol/kg-bw/day): 0.00211

## OCCN(CCO)c1nc(-c2ccccc2)c(-c2ccccc2)o1
TherapeuticCategory: anti inflammatory
  maximum recommended daily dose (mmol/kg-bw/day): 0.0617

## C=CC[N+]1([C@H]2C[C@H]3[C@@H]4CC[C@H]5C[C@H](O)[C@@H](N6CCOCC6)C[C@]5(C)[C@H]4CC[C@]3(C)[C@H]2OC(C)=O)CCCC1
TherapeuticCategory: skeletal muscle relaxant, neuromuscular blocker
  maximum recommended daily dose (mmol/kg-bw/day): 0.00197

## CCN(CC)CCOC(=O)C(c1ccccc1)c1ccccc1
[9]
  maximum recommended daily dose (mmol/kg-bw/day): 0.0241
